How the values were obtained:
5HT1A receptor = 5HT1A receptor (Rattus norvegicus (Rat), UniProt P19327); test: 5HT1A receptor binding assay (3H-8-OH-DPAT)
Procedure: Preparation of 5HT1A Membrane
Incubation at 37° C. was conducted for 10 min, the weight of the tubes were adjusted using a balance after incubation. […] Centrifugation was conducted and repeated 3 times.
Materials for the Receptor Binding Assay

5HT2A receptor = 5HT2A receptor (Rattus norvegicus (Rat), UniProt P14842); test: 5HT2A receptor binding assay ([3H]-Ketanserin)
D3 receptor = D3 receptor (Homo sapiens (Human), UniProt P35462); test: D3 receptor competitive binding assay ([3H]-Spiperone, HEK-293 cells)
Procedure: After the cells were centrifuged at 1000 rpm for 5 min, the supernatant was discarded, and the cell pellet was collected and stored in a -20° C. fridge for reservation. It was re-suspended with Tris-Cl (pH 7.4) in the assay. […] Tris was divided into aliquots by […] Technology Inc. Procedures Competitive binding test for receptors: 20 μl of each of the test compounds and 20 μl of the radioactive ligand together with 160 μl of the receptor proteins were added into the reaction tubes, and the final concentrations of the test compound and the positive drug were all 10 μmol/L. After 50 min of incubation in 30° C. water bath, the tubes were immediately moved to ice bath to terminate the reactions. GF/C glass fiber filter papers were used for rapid sucking filtration on a Millipore cell sample collector, elution buffer (50 mM Tris-HCl, PH 7.4) was applied for 3 ml×3 times, and microwave was applied for 4-5 min for drying. The filter papers were moved into 0.5 ml centrifuge tubes, and 500 μl of lipid-soluble scintillation solution was added. The tubes were allowed to stand still for over 30 min in dark, and the intensities of radioactivity were measured by a counter.

5HT2C receptor = 5HT2C receptor (Rattus norvegicus (Rat), UniProt P08909); test: 5HT2C receptor binding assay ([3H]-mesulergine)
mice of Kunming breed = test: MK-801 induced high activity; assay type: in vivo; conditions: for ED50: Mus musculus; for ED50 / MK-801 induced high activity ED50: po, mice
Procedure: Healthy mice of Kunming breed (with half male and half female, (20±2) g) were provided by Qinglongshan Animal Cultivation Center, Nanjing.
Ascorbic acid was provided by Sinopharm Chemical Reagent Co. Ltd.
Tween 80, with the concentration of 10%.
Subsequently, the spontaneous activities of the mice of each group in 90 min were measured.

KM mice [1] = test: Apomorphine induced clambering assay of mice; assay type: in vivo; conditions: for ED50: Mus musculus, read-out: apomorphine induced clambering ED50; for Scoring (value), apomorphine induced clambering: x ± s, n = 10
Procedure: Apomorphine Induced Clambering Assay of Mice
Healthy KM mice (male, with body weight of 18-22 g) were provided by Qinglongshan Animal Cultivation Center, Nanjing.
Apomorphine provided by Sigma Company was dissolved in 0.9% NaCl (containing 0.1% vitamin C) before use, and was freshly formulated before use.
Vitamin C, F20061113, was provided by Sinopharm Chemical Reagent Co. Ltd.
Sodium chloride injection, H32026305, was provided by Xuzhou No. 5 Pharmaceutical Factory Co. Ltd.
Instruments: self-made clambering cage, chronograph.
Procedures: apomorphine induced clambering assay of mice
After 5 min of adaptation, the behaviors of the mice at 10-11, 20-21, and 30-31 min after the injection of apomorphine were observed and scored. Scoring criteria: 4 paws on the floor was scored as 0; 2 forepaws on the cage was scored as 1; and 4 paws on the cage was scored as 2.

Catalepsy assay = conditions: both, Kunming (KM), mouse, po
Procedure: (§1) Healthy mice of Kunming breed (with half male and half female, (22±2) g) were provided by Qinglongshan Animal Cultivation Center, Nanjing.
(§2) The durations for the mice to maintain the posture with the two forepaws on the bars were recorded, and 30 s of spasticity without moving was considered as the positive response. In the case the forepaws of the mice were not put down persistently, the observation was terminated at 60 s. The numbers of animals with positive response in each of the compound dosage groups were counted.

in vivo = conditions: both sexes, mouse, in vivo; po, mice, single intragastric administration; read-out: LD50
Procedure: (§3) Limit Test of Sequential Assay
(§4) KM mice (half male and half female) were randomly divided into several groups (with 2-5 mice in each group), which were respectively the 2000 mg/kg groups for each compound, and the solvent group. 0.2 ml/10 g were administered intragastrically. The death of the animals in 3 days were observed. (In the case 3 or more animals survived in 3 days without notable abnormity in their life states, the observation was continued until the assay was completed in 7 days. In the case 3 or more animals died in 3 days, the median lethal dose method was used to determine the LD50).
(§5) Pre-Assay for the Median Lethal Dose Method
(§6) 0.2 ml/10 g were administered intragastrically, and the death of the animals in 1-3 days were observed.

D2 receptor = D2 receptor (Rattus norvegicus (Rat), UniProt P61169); test: D2 receptor inhibition binding assay (3H-Spiperone)
Procedure: Rats were sacrificed by cervical dislocation on ice. Cerebral cortex was rapidly taken, and 2 cerebral cortexes were combined into a centrifuge tube, to which 3 ml of buffer (0.05 M Tris-HCl buffer, containing NaCl 120 mM, KCl 5 mM, MgCl2 1 mM, CaCl2 1 mM) was added, homogenization was conducted for 3-4 s at level 4 for four times, and then 5 ml of buffer was then added. The weight of the homogenized tubes were adjusted using a balance, and centrifugation was conducted at 12000 r, 4° C. for 20 min. The supernatant was discarded, and 3 ml of B solution was added. Vortex mixer was used for blending, and then 5 ml of B solution was added. Centrifugation was conducted and repeated 3 times. After the centrifugations, the supernatant was discarded, and the pellets were stored at −80° C. for future use.
Beckman LS-6500 Multi-function Liquid Scintillation Counter was used.
(1) The prepared membrane was first applied with appropriate amount of homogenized liquid, and homogenizer was used for evenly dispersing. 15 tubes were mixed into a 100 ml container, and appropriate amount of homogenized liquid was added to give 50 ml of membrane suspension, which was reserved for future use.
(2) 100 μL of membrane preparation and 100 μL of buffer were added into each reaction tube.
(3) 100 μL of homogenized liquid was added into the total binding tube (TB), 100 μL of Butaclamol (final concentration 10^−5 M) was added into the non-specific binding tube (NB), and 100 μL of the test compound (final concentration 10^−5 M) was added into the specific binding tube (SB) for each compound.
(5) Each of the reaction tubes was incubated at 37° C. for 20 min. After the reaction was completed, the bound ligands were rapidly filtered under reduced pressure, and the ice-chilled assay buffer was used for adequate washing. The filter was taken out and put into a 3 ml scintillation vial, and 2 ml of toluene scintillation solution was added and blended.
(6) The scintillation vials were put into Liquid Scintillation Counter for counting. Inhibitory rate (I %)=(Total binding tube cpm−compound cpm)/(Total binding tube cpm−non-specific binding tube cpm)×100%
Each assay for the compounds was conducted in duplicate.

KM mice [2] = test: Catalepsy assay; conditions: mouse, in vivo
Procedure: as §1, §2

KM mice [3] = test: in vivo; conditions: po, mice, single intragastric administration
Procedure: as §3, §4, §5, §6

5HT1A receptor, sequence (P19327 whole entry): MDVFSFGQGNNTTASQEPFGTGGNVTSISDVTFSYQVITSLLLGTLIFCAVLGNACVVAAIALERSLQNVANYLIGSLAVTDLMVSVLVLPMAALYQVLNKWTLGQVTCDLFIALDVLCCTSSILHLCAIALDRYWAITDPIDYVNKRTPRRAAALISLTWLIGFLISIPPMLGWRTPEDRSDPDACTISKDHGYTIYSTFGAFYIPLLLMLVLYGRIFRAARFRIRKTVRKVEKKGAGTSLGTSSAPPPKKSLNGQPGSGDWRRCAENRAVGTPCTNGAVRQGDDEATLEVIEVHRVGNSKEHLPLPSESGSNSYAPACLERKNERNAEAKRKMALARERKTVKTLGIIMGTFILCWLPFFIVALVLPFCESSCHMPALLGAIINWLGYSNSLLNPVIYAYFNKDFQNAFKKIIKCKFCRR
D2 receptor, sequence (P61169 whole entry): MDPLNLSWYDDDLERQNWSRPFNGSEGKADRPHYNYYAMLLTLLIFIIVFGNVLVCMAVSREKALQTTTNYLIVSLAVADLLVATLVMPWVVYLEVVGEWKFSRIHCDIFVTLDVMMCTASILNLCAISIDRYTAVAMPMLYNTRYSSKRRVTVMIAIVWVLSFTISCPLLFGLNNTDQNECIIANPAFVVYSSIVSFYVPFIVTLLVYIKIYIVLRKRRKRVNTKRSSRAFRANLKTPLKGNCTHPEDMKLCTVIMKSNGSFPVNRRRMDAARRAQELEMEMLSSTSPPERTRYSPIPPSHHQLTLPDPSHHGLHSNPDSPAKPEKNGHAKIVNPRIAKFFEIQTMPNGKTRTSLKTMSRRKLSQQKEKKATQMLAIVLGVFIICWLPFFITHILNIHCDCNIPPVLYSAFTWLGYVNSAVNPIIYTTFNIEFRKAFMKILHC
D3 receptor, sequence (P35462 whole entry): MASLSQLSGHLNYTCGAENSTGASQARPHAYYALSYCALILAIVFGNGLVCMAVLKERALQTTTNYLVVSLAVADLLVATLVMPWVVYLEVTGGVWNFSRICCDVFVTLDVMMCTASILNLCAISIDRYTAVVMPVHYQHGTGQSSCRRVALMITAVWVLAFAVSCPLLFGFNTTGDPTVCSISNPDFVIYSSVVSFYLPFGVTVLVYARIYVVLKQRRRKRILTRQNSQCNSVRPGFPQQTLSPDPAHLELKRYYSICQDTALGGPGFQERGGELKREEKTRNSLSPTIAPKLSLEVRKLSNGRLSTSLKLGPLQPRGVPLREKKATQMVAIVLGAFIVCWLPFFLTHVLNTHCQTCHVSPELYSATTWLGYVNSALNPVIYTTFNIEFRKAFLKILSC
5HT2C receptor, sequence (P08909 33-460): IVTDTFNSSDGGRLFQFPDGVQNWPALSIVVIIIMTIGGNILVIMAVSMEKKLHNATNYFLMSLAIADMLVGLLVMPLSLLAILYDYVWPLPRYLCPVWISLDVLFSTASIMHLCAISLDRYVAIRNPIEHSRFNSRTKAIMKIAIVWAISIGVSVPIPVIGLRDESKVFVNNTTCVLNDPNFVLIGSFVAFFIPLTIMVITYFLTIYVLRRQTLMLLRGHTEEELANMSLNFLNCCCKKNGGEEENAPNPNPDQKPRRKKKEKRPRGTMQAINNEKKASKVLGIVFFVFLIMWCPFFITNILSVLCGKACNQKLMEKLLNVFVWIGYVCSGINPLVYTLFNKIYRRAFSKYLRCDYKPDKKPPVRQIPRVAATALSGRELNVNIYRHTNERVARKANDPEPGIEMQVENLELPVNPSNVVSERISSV
5HT2A receptor, sequence (P14842 whole entry): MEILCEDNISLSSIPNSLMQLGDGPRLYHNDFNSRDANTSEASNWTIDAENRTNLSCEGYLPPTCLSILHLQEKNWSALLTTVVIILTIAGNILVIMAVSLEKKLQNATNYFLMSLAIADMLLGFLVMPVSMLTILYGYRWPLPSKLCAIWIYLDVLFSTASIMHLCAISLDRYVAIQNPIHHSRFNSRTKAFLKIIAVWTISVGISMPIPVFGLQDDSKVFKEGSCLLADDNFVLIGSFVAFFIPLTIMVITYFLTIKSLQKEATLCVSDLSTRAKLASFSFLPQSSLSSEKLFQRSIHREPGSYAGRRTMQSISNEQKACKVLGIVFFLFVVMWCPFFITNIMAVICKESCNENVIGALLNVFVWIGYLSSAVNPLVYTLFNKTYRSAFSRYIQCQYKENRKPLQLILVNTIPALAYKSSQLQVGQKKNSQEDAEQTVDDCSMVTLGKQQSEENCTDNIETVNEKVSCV

In the case of O=c1oc2cc(OCCCN3CCC(c4noc5cc(F)ccc45)CC3)ccc2c2c1CCC2 [Compound 5, 7-{3-[4-(3-(6-fluoro-benzisoxazole)-1-piperidyl)-n-propoxy]}-2,3-dihydro-1H-cyclopenteno[c]benzopyran-4-one], the IC50 (5HT1A receptor) is reported as 0.03 nM, the IC50 (5HT2A receptor) is reported as 0.56 nM and the IC50 (D3 receptor) is reported as 8.9 nM. It also gave an IC50 (5HT2C receptor) of 1160 nM, an ED50 (mice of Kunming breed) of 0.35 mg/kg and an ED50 (KM mice [1]; po, mice) of 0.68 mg/kg. For the same compound, the “Scoring (value), apomorphine induced clambering” value (from here on “Scoring (value)”) (KM mice [1]; dosage 0.1 mg/kg) was 4.60 ± 2.07, the “Scoring (value)” value (KM mice [1]; dosage 0.3 mg/kg) was 3.00 ± 1.94 and the “Scoring (value)” value (KM mice [1]; dosage 1 mg/kg) was 0.90 ± 1.20. For the same compound, the “Scoring (value)” value (KM mice [1]; dosage 3 mg/kg) was 0.20 ± 0.63, the ED50 (Catalepsy assay; in vivo) was 168 mg/kg and the LD50 (in vivo) was over 2000 mg/kg. It also gave an IC50 (D2 receptor) of 5.6 nM.
For COc1ccccc1N1CCN(CCCCOc2ccc3c4c(c(=O)oc3c2)CCC4)CC1 [Compound 7, 7-{4-[4-(2-methoxyphenyl)piperazin-1-yl]-butoxy}-2,3-dihydro-1H-cyclopenteno[c]benzopyran-4-one], the IC50 (5HT1A receptor) was 0.08 nM, the “affinity for 5-HT1A receptor (in words)” value (5HT1A receptor; in vitro assay) was “relatively stronger affinities” and the IC50 (5HT2A receptor) was 0.78 nM. For the same compound, the “affinity for 5-HT2A receptor (in words)” value (5HT2A receptor; in vitro assay) was “relatively stronger affinities”, the IC50 (D3 receptor) was 7.4 nM and the “affinity for D3 receptor (in words)” value (D3 receptor; in vitro assay) was “relatively stronger affinities”. For the same compound, the IC50 (5HT2C receptor) was 1300 nM, the “affinity for 5HT2C (in words)” value (5HT2C receptor; in vitro assay) was “lower affinity” and the ED50 (mice of Kunming breed) was 2.05 mg/kg. The “effect on MK-801 induced high activity (in words)” value (mice of Kunming breed; compared to the model group) was “significantly improve”, the ED50 (KM mice [1]; po, mice) was 0.13 mg/kg and the “effect on apomorphine induced clambering symptoms (in words)” value (KM mice [1]; compared to the model group) was “effectively improve”. For the same compound, the “Scoring (value)” value (KM mice [1]; dosage 3 mg/kg) was 3.50 ± 1.96, the “Scoring (value)” value (KM mice [1]; dosage 10 mg/kg) was 2.60 ± 1.58 and the “Scoring (value)” value (KM mice [1]; dosage 30 mg/kg) was 1.80 ± 1.40. For the same compound, the “Scoring (value)” value (KM mice [1]; dosage 100 mg/kg) was 0.00 ± 0.00, the ED50 (Catalepsy assay; in vivo) was 261 mg/kg and the “EPS at effective dosage (in words)” value (KM mice [2]) was “did not cause EPS at effective dosage”. For the same compound, the LD50 (in vivo) was over 2000 mg/kg, the IC50 (D2 receptor) was 2.1 nM and the “affinity for D2 receptor (in words)” value (D2 receptor; in vitro assay) was “relatively stronger affinities”.
For O=c1oc2c(Cl)c(OCCCCN3CCN(c4nsc5ccccc45)CC3)ccc2c2c1CCC2 [Compound 14, 7-{4-[4-(3-(1,2-benzisothiazole)-1-piperazinyl)-n-butoxy]}-6-chloro-2,3-dihydro-1H-cyclopenteno[c]benzopyran-4-one], the IC50 (5HT1A receptor) was 0.86 nM, the IC50 (5HT2A receptor) was 0.82 nM and the IC50 (D3 receptor) was 15.1 nM. The IC50 (5HT2C receptor) was 1490 nM, the ED50 (mice of Kunming breed) was 0.82 mg/kg and the ED50 (KM mice [1]; po, mice) was 0.25 mg/kg. The “Scoring (value)” value (KM mice [1]; dosage 0.1 mg/kg) was 5.30 ± 1.25, the “Scoring (value)” value (KM mice [1]; dosage 0.3 mg/kg) was 2.10 ± 1.85 and the “Scoring (value)” value (KM mice [1]; dosage 1 mg/kg) was 1.25 ± 1.75. The “Scoring (value)” value (KM mice [1]; dosage 3 mg/kg) was 0.25 ± 0.71, the “Scoring (value)” value (KM mice [1]; dosage 10 mg/kg) was 0.80 ± 1.40 and the ED50 (Catalepsy assay; in vivo) was 189 mg/kg. The LD50 (in vivo) was over 2000 mg/kg and the IC50 (D2 receptor) was 10.1 nM.
In the case of O=c1oc2c(Cl)c(OCCCCN3CCC(c4noc5cc(F)ccc45)CC3)ccc2c2c1CCC2 [Compound 15, 7-{4-[4-(3-(6-fluoro-benzisoxazole)-1-piperidyl)-butoxy]}-6-chloro-2,3-dihydro-1H-cyclopenteno[c]benzopyran-4-one], the IC50 (5HT1A receptor) is reported as 0.73 nM, the IC50 (5HT2A receptor) is reported as 0.29 nM and the IC50 (D3 receptor) is reported as 8.6 nM. For the same compound, the IC50 (5HT2C receptor) was 1890 nM, the ED50 (mice of Kunming breed) was 1.25 mg/kg and the ED50 (KM mice [1]; po, mice) was 0.56 mg/kg. For the same compound, the “Scoring (value)” value (KM mice [1]; dosage 0.1 mg/kg) was 4.75 ± 1.58, the “Scoring (value)” value (KM mice [1]; dosage 0.3 mg/kg) was 3.38 ± 0.92 and the “Scoring (value)” value (KM mice [1]; dosage 1 mg/kg) was 3.00 ± 1.60. For the same compound, the “Scoring (value)” value (KM mice [1]; dosage 3 mg/kg) was 0.50 ± 0.76, the ED50 (Catalepsy assay; in vivo) was 98.9 mg/kg and the LD50 (in vivo) was over 2000 mg/kg. For the same compound, the IC50 (D2 receptor) was 8.1 nM.
For COc1ccccc1N1CCN(CCCCOc2ccc3c4c(c(=O)oc3c2)CCCC4)CC1 [Compound 19, 3-{4-[4-(2-methoxyphenyl)piperazin-1-yl]-butoxy}-7,8,9,10-tetrahydrobenzo[c]benzopyran-6-one], the IC50 (5HT1A receptor) was 4.2 nM, the IC50 (5HT2A receptor) was 1.8 nM and the IC50 (D3 receptor) was 13.2 nM. The IC50 (5HT2C receptor) was 1120 nM, the ED50 (mice of Kunming breed) was 2.35 mg/kg and the ED50 (KM mice [1]; po, mice) was 0.15 mg/kg. For the same compound, the “Scoring (value)” value (KM mice [1]; dosage 0.3 mg/kg) was 4.90 ± 1.10, the “Scoring (value)” value (KM mice [1]; dosage 0.52 mg/kg) was 0.75 ± 1.04 and the “Scoring (value)” value (KM mice [1]; dosage 1 mg/kg) was 1.50 ± 1.20. For the same compound, the “Scoring (value)” value (KM mice [1]; dosage 3 mg/kg) was 0.40 ± 0.97, the ED50 (Catalepsy assay; in vivo) was 156 mg/kg and the LD50 (in vivo) was over 2000 mg/kg. It also gave an IC50 (D2 receptor) of 3.6 nM.
With CN1CCN(C2=Nc3cc(Cl)ccc3Nc3ccccc32)CC1 [clozapine] the “MK-801 induced high activity ED50” value (mice of Kunming breed) was 2.28 mg/kg, the “Scoring (value)” value (KM mice [1]; dosage 10 mg/kg) was 5.50 ± 0.76 and the “Scoring (value)” value (KM mice [1]; dosage 17.4 mg/kg) was 4.60 ± 2.07. The “Scoring (value)” value (KM mice [1]; dosage 23 mg/kg) was 3.70 ± 2.21, the “Scoring (value)” value (KM mice [1]; dosage 30 mg/kg) was 0.60 ± 1.07 and the “apomorphine induced clambering ED50” value (KM mice [1]; po, mice) was 17.92 mg/kg. The ED50 (Catalepsy assay) was over 50 mg/kg, the LD50 (in vivo) was 150 mg/kg and the LD50 (KM mice [3]) was 150 mg/kg.
With O=C(CCCN1CCC(O)(c2ccc(Cl)cc2)CC1)c1ccc(F)cc1 [haloperidol] the “MK-801 induced high activity ED50” value (mice of Kunming breed) was 7.42 mg/kg, the ED50 (KM mice [1]; po, mice) was 0.1 mg/kg and the “Scoring (value)” value (KM mice [1]; dosage 0.1 mg/kg) was 4.50 ± 1.78. The “Scoring (value)” value (KM mice [1]; dosage 0.13 mg/kg) was 1.50 ± 1.27, the “Scoring (value)” value (KM mice [1]; dosage 0.174 mg/kg) was 2.20 ± 1.69 and the “Scoring (value)” value (KM mice [1]; dosage 0.23 mg/kg) was 0.80 ± 0.79. For the same compound, the “Scoring (value)” value (KM mice [1]; dosage 0.3 mg/kg) was 0.70 ± 0.82, the “Scoring (value)” value (KM mice [1]; dosage 1 mg/kg) was 0.60 ± 1.58 and the ED50 (Catalepsy assay) was 0.44 mg/kg. For the same compound, the LD50 (in vivo) was 20 mg/kg and the LD50 (KM mice [3]) was 20 mg/kg.
